Earlier results as cited in publication PMC9262839 (Cancer Discovery, 2022).

B1: amivantamab: EGFR and MET bispecific antibody (antibody, chains of the INN, looked up, V domains shown)
VH: QVQLVESGGGVVQPGRSLRLSCAASGFTFSTYGMHWVRQAPGKGLEWVAVIWDDGSYKYYGDSVKGRFTISRDNSKNTLYLQMNSLRAEDTAVYYCARDGITMVRGVMKDYFDYWGQGTLVTVSS
VL: AIQLTQSPSSLSASVGDRVTITCRASQDISSALVWYQQKPGKAPKLLIYDASSLESGVPSRFSGSESGTDFTLTISSLQPEDFATYYCQQFNSYPLTFGGGTKVEIK
VH2: QVQLVQSGAEVKKPGASVKVSCETSGYTFTSYGISWVRQAPGHGLEWMGWISAYNGYTNYAQKLQGRVTMTTDTSTSTAYMELRSLRSDDTAVYYCARDLRGTNYFDYWGQGTLVTVSS
VL2: DIQMTQSPSSVSASVGDRVTITCRASQGISNWLAWFQHKPGKAPKLLIYAASSLLSGVPSRFSGSGSGTDFTLTISSLQPEDFATYYCQQANSFPITFGQGTRLEIK

Key:
[1] = cited from earlier work
[2] = tested on: NSCLC with EGFRexon20ins; settings: cited from earlier work

| Molecule | patients with ≥grade 3 diarrhea [1] | patients with ≥grade 3 treatment-related adverse events [1] | objective response rate (ORR) [2] |
| --- | --- | --- | --- |
| C=CC(=O)Nc1cc(Nc2ncc(C(=O)OC(C)C)c(-c3cn(C)c4ccccc34)n2)c(OC)cc1N(C)CCN(C)C [Mobocertinib] | 21% | around 40% | – |
| B1 | – | – | around 40% |
